We go through 26 compounds from patent publication US20240002344A1, “COMPOUNDS, COMPOSITIONS AND METHODS FOR HISTONE LYSINE DEMETHYLASE INHIBITION” (FibroGen, Inc., priority 2020, published 2024).

A value given as a limit tells only on which side of the number the result lay.

One assay addresses T1, recombinant human KDM4A (Homo sapiens, UniProt O75164).
T1 construct: made in house
T1 sequence (O75164 1-359 limits assumed): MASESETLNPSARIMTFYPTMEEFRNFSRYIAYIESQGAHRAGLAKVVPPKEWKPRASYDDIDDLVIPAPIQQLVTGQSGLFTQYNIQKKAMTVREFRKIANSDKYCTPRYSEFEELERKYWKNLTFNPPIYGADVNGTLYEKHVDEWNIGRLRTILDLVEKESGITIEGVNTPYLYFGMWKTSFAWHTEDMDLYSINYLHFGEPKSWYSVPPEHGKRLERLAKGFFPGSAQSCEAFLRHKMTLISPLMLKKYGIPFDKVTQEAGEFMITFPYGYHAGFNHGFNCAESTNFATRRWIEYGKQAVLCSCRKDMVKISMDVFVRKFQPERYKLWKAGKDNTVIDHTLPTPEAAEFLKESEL
Nature of the assay: 14CO2 capture enzymatic assay (decarboxylation of [1-14C] αKG), KDM4A. It is filed as biochemical. To be noted: 10 μM [1-14C] αKG, 90 μM non-labeled αKG, 50 μM peptide substrate, 37° C., 1 hour, final 1% DMSO. The gist of the method: (§1)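 Truncated recombinant human KDM5B (H3K4me3 peptide) or KDM4A (H3K9me3 peptide), 50 μM peptide, with 10 μM [1-14C]αKG plus 90 μM unlabeled αKG, 10 μM Fe(SO4), 2 mM ascorbate in pH 7.4 HEPES, 1 h at 37 °C, 1% DMSO. Released 14CO2 trapped on Ba(OH)2 filter; IC50 by non-linear fit.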

The target of another assay is T2, recombinant human KDM5B (Homo sapiens, UniProt Q9UGL1).
T2 sequence (Q9UGL1 374-755 limits assumed): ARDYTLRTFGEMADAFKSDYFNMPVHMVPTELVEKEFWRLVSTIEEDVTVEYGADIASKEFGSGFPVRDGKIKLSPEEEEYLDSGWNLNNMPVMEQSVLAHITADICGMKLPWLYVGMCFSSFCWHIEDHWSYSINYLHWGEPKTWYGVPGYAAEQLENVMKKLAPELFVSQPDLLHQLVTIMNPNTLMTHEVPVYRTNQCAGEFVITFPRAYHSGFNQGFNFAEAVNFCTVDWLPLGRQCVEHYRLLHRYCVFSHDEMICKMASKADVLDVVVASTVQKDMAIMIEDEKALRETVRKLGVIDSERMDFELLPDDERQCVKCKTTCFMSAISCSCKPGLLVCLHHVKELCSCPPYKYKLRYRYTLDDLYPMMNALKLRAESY
Nature of the assay: 14CO2 capture enzymatic assay (decarboxylation of [1-14C] αKG), KDM5B. It is filed as biochemical. To be noted: 10 μM [1-14C] αKG, 90 μM non-labeled αKG, 50 μM peptide substrate, 37° C., 1 hour, final 1% DMSO. The gist of the method:
as §1

For the compound `N#Cc1cc(Cc2cccc(F)c2)nc(C(=O)CCC(=O)O)c1O` [Example 42, 4-[4-Cyano-6-(3-fluoro-benzyl)-3-hydroxy-pyridin-2-yl]-4-oxo-butyric acid], the values for the IC50 at recombinant human KDM4A and at recombinant human KDM5B were 32000 nM and 210 nM, respectively.
Regarding `N#Cc1cc(-c2cccnc2)nc(C(=O)CCC(=O)O)c1O` [Example 13, 4-(4-Cyano-5-hydroxy-[2,3′]bipyridinyl-6-yl)-4-oxo-butyric acid], the IC50 (in general, the concentration that gives 50% inhibition) was 22000 nM on recombinant human KDM4A and 140 nM at recombinant human KDM5B.
In the case of `Cc1cccc(C)c1Cc1cc(C#N)c(O)c(C(=O)CCC(=O)O)n1` [Example 54, 4-[4-Cyano-6-(2,6-dimethyl-benzyl)-3-hydroxy-pyridin-2-yl]-4-oxo-butyric acid], the IC50 amounted to 4900 nM on recombinant human KDM4A and 230 nM at recombinant human KDM5B.
For `N#Cc1cc(Cc2c(Cl)cccc2Cl)nc(C(=O)CCC(=O)O)c1O` [Example 32, 4-[4-Cyano-6-(2,6-dichloro-benzyl)-3-hydroxy-pyridin-2-yl]-4-oxo-butyric acid], the results for the IC50 at recombinant human KDM4A and at recombinant human KDM5B were 12000 nM and 240 nM, respectively.
Take `N#Cc1cc(-c2ccc(F)cc2Cl)nc(C(=O)CCC(=O)O)c1O` [Example 83, 4-[6-(2-Chloro-4-fluoro-phenyl)-4-cyano-3-hydroxy-pyridin-2-yl]-4-oxo-butyric acid]: the IC50 at recombinant human KDM4A is more than 40000 nM; on recombinant human KDM5B, 250 nM.
In the case of `N#Cc1cc(Cc2cccc(Cl)c2Cl)nc(C(=O)CCC(=O)O)c1O` [Example 65, 4-[4-Cyano-6-(2,3-dichloro-benzyl)-3-hydroxy-pyridin-2-yl]-4-oxo-butyric acid], the IC50 at recombinant human KDM4A is 14000 nM; at recombinant human KDM5B, 180 nM.
`Cn1cc(-c2cc(C#N)c(O)c(C(=O)CCC(=O)O)n2)cn1` [Example 16, 4-[4-Cyano-3-hydroxy-6-(1-methyl-1H-pyrazol-4-yl)-pyridin-2-yl]-4-oxo-butyric acid]: the values for the IC50 on recombinant human KDM4A and at recombinant human KDM5B were more than 40000 nM and 210 nM, respectively.
With `Cc1cc(F)cc(C)c1Cc1cc(C#N)c(O)c(C(=O)CCC(=O)O)n1` [Example 151, 4-[4-Cyano-6-(4-fluoro-2,6-dimethyl-benzyl)-3-hydroxy-pyridin-2-yl]-4-oxo-butyric acid], the IC50 at recombinant human KDM4A is 1500 nM; on recombinant human KDM5B, 500 nM.
With `N#Cc1cc(-c2cc(F)ccc2Cl)nc(C(=O)CCC(=O)O)c1O` [Example 108, 4-[6-(2-Chloro-5-fluoro-phenyl)-4-cyano-3-hydroxy-pyridin-2-yl]-4-oxo-butyric acid], the IC50 was more than 40000 nM on recombinant human KDM4A and 270 nM at recombinant human KDM5B.
Consider `CSc1cc(C#N)c(O)c(C(=O)CCC(=O)O)n1` [Example 5, 4-(4-Cyano-3-hydroxy-6-methylsulfanyl-pyridin-2-yl)-4-oxo-butyric acid], for which the IC50 on recombinant human KDM4A stood at 71000 nM; on recombinant human KDM5B it was 240 nM.
Consider `N#Cc1cc(Cc2c(Cl)ccc(Cl)c2Cl)nc(C(=O)CCC(=O)O)c1O` [Example 156, 4-[4-Cyano-3-hydroxy-6-(2,3,6-trichloro-benzyl)-pyridin-2-yl]-4-oxo-butyric acid], for which the concentration for half-maximal inhibition (IC50) was 11000 nM on recombinant human KDM4A and 70 nM on recombinant human KDM5B.
In the same order, the values of `Cc1c(C#N)cccc1-c1cc(C#N)c(O)c(C(=O)CCC(=O)O)n1` [Example 98, 4-[4-Cyano-6-(3-cyano-2-methyl-phenyl)-3-hydroxy-pyridin-2-yl]-4-oxo-butyric acid] are more than 40000 nM and 300 nM.
Take `COc1cccc(Cl)c1Cc1cc(C#N)c(O)c(C(=O)CCC(=O)O)n1` [Example 125, 4-[6-(2-Chloro-6-methoxy-benzyl)-4-cyano-3-hydroxy-pyridin-2-yl]-4-oxo-butyric acid]: the IC50 was found to be 13000 nM on recombinant human KDM4A and 80 nM on recombinant human KDM5B.
As for `Cc1ccc(-c2cc(C#N)c(O)c(C(=O)CCC(=O)O)n2)c2ccccc12` [Example 113, 4-[4-Cyano-3-hydroxy-6-(4-methyl-naphthalen-1-yl)-pyridin-2-yl]-4-oxo-butyric acid], the IC50 on recombinant human KDM4A was more than 40000 nM; on recombinant human KDM5B it was 230 nM.
For `N#Cc1cc(Cc2ccc(F)cc2)nc(C(=O)CCC(=O)O)c1O` [Example 40, 4-[4-Cyano-6-(4-fluoro-benzyl)-3-hydroxy-pyridin-2-yl]-4-oxo-butyric acid], the IC50 amounted to 17000 nM on recombinant human KDM4A and 60 nM at recombinant human KDM5B.
Consider `COc1cccc(F)c1Cc1cc(C#N)c(O)c(C(=O)CCC(=O)O)n1` [Example 150, 4-[4-Cyano-6-(2-fluoro-6-methoxy-benzyl)-3-hydroxy-pyridin-2-yl]-4-oxo-butyric acid], for which the IC50 at recombinant human KDM4A was found to be 27000 nM; on recombinant human KDM5B it was 280 nM.
As to `N#Cc1cc(Cc2c(Cl)cc(Cl)cc2Cl)nc(C(=O)CCC(=O)O)c1O` [Example 144, 4-[4-Cyano-3-hydroxy-6-(2,4,6-trichloro-benzyl)-pyridin-2-yl]-4-oxo-butyric acid], the IC50 was 28000 nM at recombinant human KDM4A and 180 nM on recombinant human KDM5B.
Turning to `N#Cc1cc(Cc2c(Cl)cccc2C(F)(F)F)nc(C(=O)CCC(=O)O)c1O` [Example 59, 4-[6-(2-Chloro-6-trifluoromethyl-benzyl)-4-cyano-3-hydroxy-pyridin-2-yl]-4-oxo-butyric acid], the IC50 is more than 40000 nM at recombinant human KDM4A and 330 nM at recombinant human KDM5B.
On to `Cc1ccc(Cl)cc1-c1cc(C#N)c(O)c(C(=O)CCC(=O)O)n1` [Example 91, 4-[6-(5-Chloro-2-methyl-phenyl)-4-cyano-3-hydroxy-pyridin-2-yl]-4-oxo-butyric acid], for which the IC50 is more than 40000 nM at recombinant human KDM4A and 170 nM on recombinant human KDM5B.
Take `N#Cc1cc(Cc2c(Cl)cc(Cl)cc2Cl)cc(C(=O)CCC(=O)O)c1O` [Example 131, 4-[3-Cyano-2-hydroxy-5-(2,4,6-trichloro-benzyl)-phenyl]-4-oxo-butyric acid]: the IC50 was more than 40000 nM on recombinant human KDM4A and 50 nM at recombinant human KDM5B.
With `N#Cc1cc(-c2ccccc2)nc(C(=O)CCC(=O)O)c1O` [Example 7, 4-(4-Cyano-3-hydroxy-6-phenyl-pyridin-2-yl)-4-oxo-butyric acid], the values for the IC50 on recombinant human KDM4A and on recombinant human KDM5B were more than 40000 nM and 210 nM, respectively.
In the case of `N#Cc1cc(Cc2c(Cl)cccc2C#N)nc(C(=O)CCC(=O)O)c1O` [Example 58, 4-[6-(2-Chloro-6-cyano-benzyl)-4-cyano-3-hydroxy-pyridin-2-yl]-4-oxo-butyric acid], the IC50 at recombinant human KDM4A worked out at 16000 nM; at recombinant human KDM5B it was 180 nM.
Turning to `Cc1ccc(-c2cc(C#N)c(O)c(C(=O)CCC(=O)O)n2)c(Cl)c1` [Example 84, 4-[6-(2-Chloro-4-methyl-phenyl)-4-cyano-3-hydroxy-pyridin-2-yl]-4-oxo-butyric acid], the half-maximal inhibitory concentration (IC50) at recombinant human KDM4A was more than 40000 nM; on recombinant human KDM5B it was 460 nM.
Take `N#Cc1cc(Cc2ccc3ccccc3c2)nc(C(=O)CCC(=O)O)c1O` [Example 24, 4-(4-Cyano-3-hydroxy-6-naphthalen-2-ylmethyl-pyridin-2-yl)-4-oxo-butyric acid]: the IC50 is more than 40000 nM on recombinant human KDM4A and 520 nM at recombinant human KDM5B.
Take `N#Cc1cc(-c2ccc(F)cc2)nc(C(=O)CCC(=O)O)c1O` [Example 19, 4-[4-Cyano-6-(4-fluoro-phenyl)-3-hydroxy-pyridin-2-yl]-4-oxo-butyric acid]: the figures for the IC50 on recombinant human KDM4A and on recombinant human KDM5B were more than 40000 nM and 230 nM, respectively.
As to `N#Cc1cc(-c2cccc(C(F)(F)F)c2)nc(C(=O)CCC(=O)O)c1O` [Example 28, 4-[4-Cyano-3-hydroxy-6-(3-trifluoromethyl-phenyl)-pyridin-2-yl]-4-oxo-butyric acid], the IC50 at recombinant human KDM4A is more than 40000 nM; on recombinant human KDM5B, 200 nM.
